According to ChEMBL document CHEMBL5726444, “Pyrazole derivative” (2017):

Molecular target: cAMP and cAMP-inhibited cGMP 3',5'-cyclic phosphodiesterase 10A (Homo sapiens, UniProt Q9Y233)
Assay: Phosphodiersterase Evaluation Assay: IMAP TR-FRET Phosphodiersterase Evaluation Assay Kit (Molecular Device) was used for the measurement. Ten μL of a diluted test compound having each concentration and 5 μL of the enzyme PDE10 (BPA Bioscience) that had been diluted to 2 ng/mL with 1×IMAP Reaction Buffer (prepared with 5×included with the kit, 10 mM Tris-HCl, pH=7.2, 10 mM MgCl2, 0.05% NaN3, and 0.1% BSA) containing 0.1% BSA were added to a 384-well plate (Corning). The obtained mixture was then pre-incubated at room temperature for 5 minutes. Thereafter, 5 μL of cAMP substrate solution which was included with the kit and diluted to 400 nM with 1×IMAP Reaction Buffer containing 0.1% BSA, was added to the reaction solution, and the obtained mixture was reacted at room temperature for 60 minutes. Thereafter, 60 μL of an IMAP TR-FRET Binding solution included with the kit was further added to the reaction solution, and the obtained mixture was then left for 3 hours or more. Subsequently, using ARVO SX (PerkinElmer), the fluorescent intensity of Terbium (Emission=490 nm) and TR-FRET (Emission=520 nm) in the reaction solution were measured at an excitation wavelength of 340 nm, so as to calculate the amount of the generated 5′-AMP. […]

Chain of cAMP and cAMP-inhibited cGMP 3',5'-cyclic phosphodiesterase 10A (Q9Y233 whole entry): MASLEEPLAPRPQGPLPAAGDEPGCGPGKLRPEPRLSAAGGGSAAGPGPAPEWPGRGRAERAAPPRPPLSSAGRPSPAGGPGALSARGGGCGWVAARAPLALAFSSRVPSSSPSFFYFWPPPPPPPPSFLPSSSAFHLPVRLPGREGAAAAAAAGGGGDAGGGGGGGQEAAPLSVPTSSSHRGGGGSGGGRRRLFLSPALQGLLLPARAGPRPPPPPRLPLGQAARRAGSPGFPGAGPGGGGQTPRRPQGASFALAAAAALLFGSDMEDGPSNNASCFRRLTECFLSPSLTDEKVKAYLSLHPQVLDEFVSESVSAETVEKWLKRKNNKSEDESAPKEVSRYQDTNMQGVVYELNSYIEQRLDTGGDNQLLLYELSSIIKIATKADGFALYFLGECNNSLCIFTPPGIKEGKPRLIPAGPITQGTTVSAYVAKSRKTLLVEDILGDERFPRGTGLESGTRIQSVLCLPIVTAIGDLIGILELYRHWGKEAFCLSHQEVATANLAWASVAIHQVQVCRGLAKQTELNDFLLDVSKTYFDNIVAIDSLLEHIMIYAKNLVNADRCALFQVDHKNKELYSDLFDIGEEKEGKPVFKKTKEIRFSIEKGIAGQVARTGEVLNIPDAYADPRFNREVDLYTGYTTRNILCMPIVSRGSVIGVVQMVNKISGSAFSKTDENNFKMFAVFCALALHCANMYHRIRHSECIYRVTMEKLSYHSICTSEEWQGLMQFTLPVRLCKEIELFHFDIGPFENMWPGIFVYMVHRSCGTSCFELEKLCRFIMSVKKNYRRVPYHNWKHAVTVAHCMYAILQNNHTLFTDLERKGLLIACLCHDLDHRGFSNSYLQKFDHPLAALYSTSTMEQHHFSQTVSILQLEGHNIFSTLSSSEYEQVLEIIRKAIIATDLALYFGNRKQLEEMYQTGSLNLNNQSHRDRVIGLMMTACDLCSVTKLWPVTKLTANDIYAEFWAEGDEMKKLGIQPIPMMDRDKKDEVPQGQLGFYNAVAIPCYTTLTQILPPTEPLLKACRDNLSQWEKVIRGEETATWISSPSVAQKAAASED

## Cc1cccc(-c2cnn(C)c2C(=O)Nc2cc3nc(N4CCC[C@@H]4C(F)(F)F)nn3cc2F)n1
  IC50: < 5 nM
